Experimental data from US12655130B2 (ASSEMBLY BIOSCIENCES, INC., priority 2020, dated 2026).
Where two headings read alike, the source gives them in different places.

Tested on: HBV viral load (viral production from HepAD38 cells)
Experiment: Activity of test compounds on viral production from HepAD38 cells (viral load by qPCR of HBV core sequence)
Type: cell-based
Conditions: viral load lowering, 5 days, qPCR of supernatant, read-out: VL HepAD38 EC50 range
Description: Assay Measuring Activity of Test Compounds on Viral Production from HepAD38 Cells
HepAD38 cells grown in a T-150 flask (Corning, cat #: 430825) with Growth Medium (DMEM/F12 (1:1) (Hyclone, cat #: SH30023.02), 1× Pen/Strep (Invitrogen, cat #: 15140-122), 10% FBS (Tissue Culture Biologics, cat #: 101), 250 μg/mL G418 (Alfa Aesar, cat #: J62671), 1 μg/mL Tetracycline (Teknova, cat #: T3320)) were detached with 0.25% trypsin-EDTA (Invitrogen, cat #: 25200-056). Tetracycline-free treatment medium (15 mL DMEM/F12 (1:1) 1× Pen/step, with 2% FBS, Tet-system approved (Clontech, cat #: 631106) were then added to mix, transferred into a 50 ml conical tube (Falcon, cat #: 21008-918) and spun at 1300 rpm for 5 min. Pelleted cells were then re-suspended/washed with 50 mL of 1×DPBS (Invitrogen, cat #: 14190-136) 2 times and 50 mL treatment medium twice. HepAD38 cells were then re-suspended with 10 mL of treatment medium, syringed and counted. Wells of 96-well clear bottom TC plate (Corning, cat #: 3904) were seeded at 50,000 cells/well in 180 μL of treatment medium, and 20 μL of either 10% DMSO (Sigma, cat #: D4540) as controls or a 10× solution of test compounds in 10% DMSO in treatment media was added for a final compound concentration starting at 10 μM, and plates were incubated in 5% CO2 incubator at 37° C. for 5 days.
Subsequently viral load production was assayed by quantitative PCR (qPCR) of the HBV core sequence. PCR reaction mixture containing forward primers HBV-f 5′-CTGTGCCTTGGGTGGCITT-3′ (IDT DNA), Reverse primers HBV-r 5′-[…]-3′ (IDT DNA), Fluorescent TaqMan™ Probes HBV-probe 5′-FAM/AGCTCCAAA/ZENMITCTITATAAGGGTCGATGTC/3IABkFQ-3′ (IDT DNA), 10 μL/well of PerfeCTa® qPCR ToughMix® (Quanta Biosciences, Cat #: 95114-05K), and 6 μL/well of DEPC water (Alfa Aesar, cat #: J62087) was prepared. Four μL of supernatant was added to 16 μL of the reaction mixture in a qPCR plate (Applied Biosytems, Cat #: 4309849), sealed with a film (Applied Biosystems, Cat #: 4311971), centrifuged for a few seconds, and subsequently run on an Applied Biosystems VIIA7. The PCR mixture was incubated at 45° C. for 5 min, then 95° C. for 10 min, followed by 40 cycles of 10 seconds at 95° C. and 20 seconds at 60° C. Viral load was quantified against known HBV DNA standards by using ViiA™ 7 Software. Viral load in the supernatant from wells with treated cells were compared against viral load in supernatant from DMSO control wells (3 per plate). Cell viability assay was performed with CellTiter-Glo Luminescent Cell Viability Assay (Promega, cat #: G7573) with modification. Mixed appropriate amount of CellTiter-Glo (CTG) 1×DPBS in a 1:1 ratio, added 100 uL of the mixture to each well followed completely removal of all supernatant in each well without touching cell surface. Incubated the plate at room temperature for 10 min on an orbital shaker, and then read the plate with a plate reader (TECAN M1000 or Envision). EC50 or CC50 values were calculated through curve-fitting of the four-parameter nonlinear-logistic-regression model (GraphPad Prism or Dotmatics). CC50 values were all >10 μM.

[1] = Hepatitis B virus, HePAD38, 120 h

SMILES	EC50 [1]	EC50
Cn1cnc(C2CC3CC(O)(c4cc(Cl)nn4C)CC3C2)c1C(=O)Nc1ccc(F)c(Cl)c1 (single isomer, unassigned) [Example 73, 4-(5-(3-Chloro-1-methyl-1H-pyrazol-5-yl)-5-hydroxyoctahydropentalen-2-yl)-N-(3-chloro-4-fluorophenyl)-1-methyl-1H-imidazole-5-carboxamide]	< 10 nM	–
Cn1cnc(C2CC3CC(O)(c4cc(C(C)(C)C)nn4C)CC3C2)c1C(=O)Nc1ccc(F)c(Cl)c1 (single isomer, unassigned) [Example 74]	< 10 nM	–
[2H]C([2H])([2H])C1(O)CC2CC(c3ncn(C)c3C(=O)Nc3ccc(F)c(Cl)c3)CC2C1 (single isomer, unassigned) [Example 80, N-(3-Chloro-4-fluorophenyl)-4(5-hydroxy-5-(methyl-d3)octahydropentalen-2-yl)-1-methyl-1H-imidazole-5-carboxamide]	50 to 500 nM	–
Cn1cc(C2(O)CC3CC(c4ncn(C)c4C(=O)Nc4ccc(F)c(Cl)c4)CC3C2)c(C(F)(F)F)n1 (single isomer, unassigned) [Example 114, N-(3-Chloro-4-fluorophenyl)-4-(5-hydroxy-5-(1-methyl-3-(trifluoromethyl)-1H-pyrazol-4-yl)octahydropentalen-2-yl)-1-methyl-1H-imidazole-5-carboxamide]	< 10 nM	–
Cn1cnc(C2CC3CC(O)(Cn4cccn4)CC3C2)c1C(=O)Nc1ccc(F)c(Cl)c1 (single isomer, unassigned) [Example 128, 4-(5-((1H-pyrazol-1-yl)methyl)-5-hydroxyoctahydropentalen-2-yl)-N-(3-chloro-4-fluorophenyl)-1-methyl-1H-imidazole-5-carboxamide]	< 10 nM	–
Cn1cnc(C2CC3CC(O)(Cn4cccn4)CC3C2)c1C(=O)Nc1ccc(F)c(Cl)c1 (single isomer, unassigned) [Example 129, 4-(5-((1H-pyrazol-1-yl)methyl)-5-hydroxyoctahydropentalen-2-yl)-N-(3-chloro-4-fluorophenyl)-1-methyl-1H-imidazole-5-carboxamide]	–	10 to 50 nM
CC(O)c1nn(C)cc1C1(O)CC2CC(c3ncn(C)c3C(=O)Nc3ccc(F)c(Cl)c3)CC2C1 (single isomer, unassigned) [Example 188, N-(3-Chloro-4-fluorophenyl)-4-(5-hydroxy-5-(3-(1-hydroxyethyl)-1-methyl-1H-pyrazol-4-yl)octahydropentalen-2-yl)-1-methyl-1H-imidazole-5-carboxamide]	< 10 nM	–
CC(O)c1nn(C)cc1C1(O)CC2CC(c3ncn(C)c3C(=O)Nc3ccc(F)c(Cl)c3)CC2C1 (single isomer, unassigned) [Example 189, N-(3-Chloro-4-fluorophenyl)-4-(5-hydroxy-5-(3-(1-hydroxyethyl)-1-methyl-1H-pyrazol-4-yl)octahydropentalen-2-yl)-1-methyl-1H-imidazole-5-carboxamide]	–	< 10 nM
Cn1cnc(C2CC3CC(O)(c4cc(OCC(O)CO)nn4C)CC3C2)c1C(=O)Nc1ccc(F)c(Cl)c1 (single isomer, unassigned) [Example 205, N-(3-Chloro-4-fluorophenyl)-4-(5-(3-(2,3-dihydroxypropoxy)-1-methyl-1H-pyrazol-5-yl)-5-hydroxyoctahydropentalen-2-yl)-1-methyl-1H-imidazole-5-carboxamide]	< 10 nM	–
Cn1cnc(C2CC3CC(O)(c4cc(OCC(O)CO)nn4C)CC3C2)c1C(=O)Nc1ccc(F)c(Cl)c1 (single isomer, unassigned) [Example 206, N-(3-Chloro-4-fluorophenyl)-4-(5-(3-(2,3-dihydroxypropoxy)-1-methyl-1H-pyrazol-5-yl)-5-hydroxyoctahydropentalen-2-yl)-1-methyl-1H-imidazole-5-carboxamide]	–	< 10 nM
CC(O)COc1cc(C2(O)CC3CC(c4ncn(C)c4C(=O)Nc4ccc(F)c(Cl)c4)CC3C2)n(C)n1 (single isomer, unassigned) [Example 209, N-(3-Chloro-4-fluorophenyl)-4-(5-hydroxy-5-(3-(2-hydroxypropoxy)-1-methyl-1H-pyrazol-5-yl)octahydropentalen-2-yl)-1-methyl-1H-imidazole-5-carboxamide]	< 10 nM	–
CC(O)COc1cc(C2(O)CC3CC(c4ncn(C)c4C(=O)Nc4ccc(F)c(Cl)c4)CC3C2)n(C)n1 (single isomer, unassigned) [Example 210, N-(3-Chloro-4-fluorophenyl)-4-(5-hydroxy-5-(3-(2-hydroxypropoxy)-1-methyl-1H-pyrazol-5-yl)octahydropentalen-2-yl)-1-methyl-1H-imidazole-5-carboxamide]	–	< 10 nM
Cn1cnc(C2CC3CC(O)(c4cccc(F)c4)CC3C2)c1C(=O)Nc1ccc(F)c(Cl)c1 (stereo not shown) [Example 6, N-(3-Chloro-4-fluorophenyl)-4-(5-(3-fluorophenyl)-5-hydroxyoctahydropentalen-2-yl)-1-methyl-1H-imidazole-5-carboxamide]	< 10 nM	–
Cn1cnc(C2CC3CC(O)(c4ccc(F)cc4)CC3C2)c1C(=O)Nc1ccc(F)c(Cl)c1 (stereo not shown) [Example 7, N-(3-Chloro-4-fluorophenyl)-4-(5-(4-fluorophenyl)-5-hydroxyoctahydropentalen-2-yl)-1-methyl-1H-imidazole-5-carboxamide]	< 10 nM	–
Cn1cnc(C2CC3CC(O)(c4ccccc4)CC3C2)c1C(=O)Nc1ccc(F)c(Cl)c1 (stereo not shown) [Example 8, N-(3-Chloro-4-fluorophenyl)-4-(5-hydroxy-5-phenyloctahydropentalen-2-yl)-1-methyl-1H-imidazole-5-carboxamide]	< 10 nM	–
Cn1cnc(C2CC3CC(O)(c4ccccn4)CC3C2)c1C(=O)Nc1ccc(F)c(Cl)c1 (stereo not shown) [Example 9, N-(3-Chloro-4-fluorophenyl)-4-(5-hydroxy-5-(pyridin-2-yl)octahydropentalen-2-yl)-1-methyl-1H-imidazole-5-carboxamide]	< 10 nM	–
Cn1cnc(C2CC3CC(O)(c4ccnn4C)CC3C2)c1C(=O)Nc1ccc(F)c(Cl)c1 (stereo not shown) [Example 10, N-(3-chloro-4-fluorophenyl)-4-(5-hydroxy-5-(1-methyl-1H-pyrazol-5-yl)octahydropentalen-2-yl)-1-methyl-1H-imidazole-5-carboxamide]	< 10 nM	–
Cn1cnc(C2CC3CC(O)(CS(=O)(=O)c4ccc(F)cc4)CC3C2)c1C(=O)Nc1ccc(F)c(Cl)c1 (stereo not shown) [Example 11, N-(3-Chloro-4-fluorophenyl)-4-(5-(((4-fluorophenyl)sulfonyl)methyl)-5-hydroxyoctahydropentalen-2-yl)-1-methyl-1H-imidazole-5-carboxamide]	10 to 50 nM	–
Cn1cnc(C2CC3CC(O)(C(F)(F)F)CC3C2)c1C(=O)Nc1ccc(F)c(Cl)c1 (stereo not shown) [Example 12, N-(3-Chloro-4-fluorophenyl)-4-(5-hydroxy-5-(trifluoromethyl)octahydropentalen-2-yl)-1-methyl-1H-imidazole-5-carboxamide]	< 10 nM	–
Cn1cnc(C2CC3CC(N)CC3C2)c1C(=O)Nc1ccc(F)c(Cl)c1 (stereo not shown) [Example 13, 4-(5-Aminooctahydropentalen-2-yl)-N-(3-chloro-4-fluorophenyl)-1-methyl-1H-imidazole-5-carboxamide]	10 to 50 nM	–
Cn1cnc(-c2ccc(C3CCC(c4ncn(C)c4C(=O)Nc4ccc(F)c(Cl)c4)C3)cc2)c1 (stereo not shown) [Example 14, N-(3-Chloro-4-fluorophenyl)-1-methyl-4-(3-(4-(1-methyl-1H-imidazol-4-yl)phenyl)cyclopentyl)-1H-imidazole-5-carboxamide]	< 10 nM	–
Cn1cnc(-c2ccc(C3CCC(c4ncn(C)c4C(=O)Nc4ccc(F)c(Cl)c4)C3)cc2)c1 (stereo not shown) [Example 15, N-(3-Chloro-4-fluorophenyl)-1-methyl-4-(3-(4-(1-methyl-1H-imidazol-4-yl)phenyl)cyclopentyl)-1H-imidazole-5-carboxamide]	–	< 10 nM
